The results in this text go back to ChEMBL document CHEMBL1201862, “PubChem BioAssay data set” (2004).

Among the test systems are ACHN; BT-549; CAKI-1; COLO 205; DU-145; HCT-116; HL-60; IGROV-1; MDA-MB-435; NCI-H23; NCI-H522; NCI/ADR-RES; OVCAR-3; OVCAR-4; OVCAR-8; PC-3; SNB-19; SR; U-251; UACC-257.
What all share (assay): growth of human tumour cells (NCI), 48 h

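Five compound concentrations were applied to cells in 96-well plates for 48 hours; endpoints were derived by simple linear interpolation of the resulting dose-response curve. At the GI50, growth is halved.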 Calls of active or inactive are those of the source. Cut-off read from the data, not from the text of the source: active = GI50 up to about 1.1 µM and inactive = higher.

For the compound `CC(C)(C)CC(N)=O`, the GI50 in the assay on ACHN, in the assay on BT-549, in the assay with CAKI-1, with COLO 205, in the assay with DU-145 and in the assay on HCT-116 was > 100 µM (inactive) each time. The GI50 in the assay on HL-60, with IGROV-1, in the assay with MDA-MB-435, in the assay on NCI-H23, with NCI-H522 and with NCI/ADR-RES was > 100 µM (inactive) throughout. Besides, the GI50 with OVCAR-3, in the assay with OVCAR-4, in the assay on OVCAR-8, in the assay on PC-3, in the assay with SNB-19 and in the assay on SR was > 100 µM (inactive) in each case. In addition, the GI50 in the assay on U-251 and with UACC-257 was > 100 µM (inactive) each time.

As for `Cc1nn(-c2cc(Cl)ccc2[N+](=O)[O-])c(C)c1Cl`, the GI50 in the assay on ACHN is > 100 µM (inactive); in the assay with BT-549 it was 42.5 µM (inactive); with CAKI-1, 83.4 µM (inactive); with COLO 205, > 100 µM (inactive); in the assay with DU-145, > 100 µM (inactive); with HCT-116, 53.8 µM (inactive). The GI50 in the assay on HL-60 was 91.8 µM (inactive); in the assay on IGROV-1, > 100 µM (inactive); in the assay on MDA-MB-435, > 100 µM (inactive); with NCI-H23 it was > 100 µM (inactive); with NCI-H522, > 100 µM (inactive); in the assay on NCI/ADR-RES, 55.8 µM (inactive). For the same compound, the GI50 was > 100 µM (inactive) with OVCAR-3; > 100 µM (inactive) in the assay on OVCAR-4; > 100 µM (inactive) with OVCAR-8; 51.2 µM (inactive) with PC-3; > 100 µM (inactive) in the assay with SNB-19; > 100 µM (inactive) in the assay with SR. The GI50 in the assay on U-251 and in the assay with UACC-257 was > 100 µM (inactive) each time.

Turning to `O=C(NNC(=S)NC1CCCCC1)C12CC3CC(CC(C3)C1)C2`, the GI50 in the assay with ACHN, in the assay with BT-549, in the assay with CAKI-1, in the assay on COLO 205, with DU-145 and in the assay with HCT-116 was > 100 µM (inactive) each time. Further, the GI50 in the assay on HL-60, with IGROV-1, with MDA-MB-435, in the assay with NCI-H23, in the assay with NCI-H522 and with NCI/ADR-RES was > 100 µM (inactive) each time. The GI50 in the assay with OVCAR-3 was > 100 µM (inactive); in the assay with OVCAR-4 it was > 100 µM (inactive); with OVCAR-8, > 100 µM (inactive); in the assay on PC-3 it was > 100 µM (inactive); with SNB-19, > 100 µM (inactive); with SR, 0.637 µM (active). Also, the GI50 with U-251 and in the assay with UACC-257 was > 100 µM (inactive) in each case.

For `S=c1c2cc(I)ccc2nc(S)n1Cc1ccccc1`, the GI50 with ACHN was 3.06 µM (inactive); with BT-549, 4.42 µM (inactive); with CAKI-1 it was 3.78 µM (inactive); in the assay with COLO 205 it was 10.7 µM (inactive); in the assay on DU-145, 2.71 µM (inactive); in the assay on HCT-116, 3.38 µM (inactive). Besides, the GI50 in the assay with HL-60 was 2.33 µM (inactive); in the assay on IGROV-1, 4.05 µM (inactive); in the assay on MDA-MB-435 it was 4.1 µM (inactive); in the assay on NCI-H23 it was 2.91 µM (inactive); with NCI-H522 it was 4.38 µM (inactive); in the assay with NCI/ADR-RES, 3.37 µM (inactive). Also, the GI50 was 2.9 µM (inactive) in the assay with OVCAR-3; 3.62 µM (inactive) in the assay on OVCAR-4; 5.57 µM (inactive) in the assay on OVCAR-8; 3.32 µM (inactive) in the assay on PC-3; 4.32 µM (inactive) in the assay on SNB-19; 3.64 µM (inactive) in the assay on SR. The GI50 is 3.46 µM (inactive) in the assay with U-251 and 2.44 µM (inactive) with UACC-257.

As for `CCOC(=O)c1c(C)c(C)n2c1NC(=O)C2`, the GI50 with ACHN was > 76.2 µM (inactive); in the assay on BT-549, 50.9 µM (inactive); in the assay with CAKI-1, > 59.4 µM (inactive); with COLO 205, > 73.6 µM (inactive); with DU-145, 20.8 µM (inactive); in the assay with HCT-116, 36.6 µM (inactive). Moreover, the GI50 with HL-60 is > 100 µM (inactive); in the assay on IGROV-1 it was > 72.1 µM (inactive); in the assay on MDA-MB-435, > 100 µM (inactive); in the assay with NCI-H23, > 43 µM (inactive); in the assay on NCI-H522, > 43.7 µM (inactive); in the assay on NCI/ADR-RES, 20.4 µM (inactive). The GI50 with OVCAR-3 was > 64.4 µM (inactive); with OVCAR-4, > 100 µM (inactive); with OVCAR-8, > 70.3 µM (inactive); in the assay with PC-3 it was 36.8 µM (inactive); in the assay with SNB-19, 55.3 µM (inactive); with SR, 37.2 µM (inactive). Besides, the GI50 in the assay with U-251 is > 48.1 µM (inactive); in the assay with UACC-257, > 60 µM (inactive).

Regarding `CC1=CN(c2ccccc2)S2=C1c1sc3c(c1N2c1ccc(Br)cc1)CCCC3` (stereo not given), the GI50 with ACHN, in the assay with BT-549, in the assay with CAKI-1, in the assay with COLO 205, in the assay with DU-145 and in the assay on HCT-116 was > 100 µM (inactive) throughout. Besides, the GI50 in the assay with HL-60, with IGROV-1, in the assay with MDA-MB-435, in the assay with NCI-H23, with NCI-H522 and in the assay on NCI/ADR-RES was > 100 µM (inactive) in each case. Further, the GI50 in the assay on OVCAR-3, in the assay on OVCAR-4, in the assay on OVCAR-8, with PC-3, in the assay with SNB-19 and in the assay on SR was > 100 µM (inactive) in each case. For the same compound, the GI50 with U-251 and in the assay on UACC-257 was > 100 µM (inactive) in each case.

In the case of `Oc1ccccc1/C=N/c1ccc(Oc2ccc(Cl)cc2)c(Cl)c1`, the GI50 was 30.3 µM (inactive) with ACHN; 15.8 µM (inactive) in the assay with BT-549; 23.2 µM (inactive) in the assay on CAKI-1; 21.8 µM (inactive) with COLO 205; 81.8 µM (inactive) in the assay with DU-145; 16.7 µM (inactive) in the assay on HCT-116. In addition, the GI50 in the assay with HL-60 was 17.9 µM (inactive); in the assay with IGROV-1, 22.7 µM (inactive); in the assay with MDA-MB-435, 28.3 µM (inactive); with NCI-H23, 18.6 µM (inactive); in the assay on NCI-H522, 14.4 µM (inactive); with NCI/ADR-RES, 19.3 µM (inactive). Besides, the GI50 in the assay on OVCAR-3 is 15 µM (inactive); in the assay with OVCAR-4 it was 22.4 µM (inactive); in the assay on OVCAR-8, 19.9 µM (inactive); in the assay on PC-3, 20.9 µM (inactive); in the assay on SNB-19, 17.4 µM (inactive); with SR, 38.2 µM (inactive). For the same compound, the GI50 is 21.2 µM (inactive) with U-251 and 28.6 µM (inactive) in the assay with UACC-257.

`COc1cc2c3c4c1OCc1c5c(cc(c1-4)CC3[N+](C)(C)CC2)OCO5` (stereo not given): the GI50 was > 100 µM (inactive) in the assay on ACHN; 2.83 µM (inactive) in the assay with BT-549; > 100 µM (inactive) with CAKI-1; > 100 µM (inactive) with COLO 205; > 100 µM (inactive) with DU-145; > 100 µM (inactive) in the assay with HCT-116. For the same compound, the GI50 in the assay with HL-60 was > 100 µM (inactive); in the assay with IGROV-1, > 100 µM (inactive); in the assay with MDA-MB-435 it was > 100 µM (inactive); in the assay on NCI-H23 it was 54.8 µM (inactive); with NCI-H522, 27.1 µM (inactive); in the assay with NCI/ADR-RES it was > 80.5 µM (inactive). Further, the GI50 with OVCAR-3 is > 89.9 µM (inactive); with OVCAR-4 it was > 100 µM (inactive); with OVCAR-8 it was > 72.9 µM (inactive); in the assay on PC-3, > 100 µM (inactive); in the assay with SNB-19, 4.33 µM (inactive); in the assay on SR it was 49.8 µM (inactive). For the same compound, the results for the GI50 in the assay with U-251 and with UACC-257 were 4.9 µM (inactive) and > 100 µM (inactive), respectively.

Take `Cc1ccc2c(ccc3c[n+]4ccccc4c(C)c32)c1.[O-][Cl+3]([O-])([O-])[O-]`: the GI50 is 6.7 µM (inactive) in the assay on ACHN; 1.15 µM (inactive) in the assay with BT-549; 0.297 µM (active) with CAKI-1; 1.32 µM (inactive) with COLO 205; 1.13 µM (inactive) with DU-145; 4.59 µM (inactive) in the assay on HCT-116. For the same compound, the GI50 was 11.7 µM (inactive) with HL-60; 8.04 µM (inactive) in the assay on IGROV-1; 4.73 µM (inactive) in the assay with MDA-MB-435; 1.32 µM (inactive) with NCI-H23; 1.59 µM (inactive) in the assay on NCI-H522; > 100 µM (inactive) with NCI/ADR-RES. Also, the GI50 with OVCAR-3 was 1.12 µM (active); in the assay on OVCAR-4, 2.07 µM (inactive); in the assay on OVCAR-8 it was 2.29 µM (inactive); in the assay with PC-3 it was 0.904 µM (active); in the assay on SNB-19, 0.451 µM (active); in the assay with SR, 1.21 µM (inactive). Also, the figures for the GI50 in the assay with U-251 and in the assay on UACC-257 were 0.581 µM (active) and 1.34 µM (inactive), respectively.

In the case of `C/C(=C/CC[C@]1(CO)CC[C@]2(C)[C@H](CC[C@@H]3[C@@]4(C)CC[C@H](OC5OC(CO)C(O)C(O)C5OC5OC(CO)C(O)C(O)C5O)C(C)(C)[C@@H]4CC[C@]32C)[C@H]1O)CO` (stereo not given in full), the GI50 in the assay with ACHN, with BT-549, in the assay with CAKI-1, with COLO 205, in the assay on DU-145 and with HCT-116 was > 100 µM (inactive) throughout. The GI50 with HL-60, with IGROV-1, in the assay with MDA-MB-435, in the assay with NCI-H23, with NCI-H522 and in the assay on NCI/ADR-RES was > 100 µM (inactive) each time. Besides, the GI50 in the assay with OVCAR-3, in the assay with OVCAR-4, in the assay with OVCAR-8, in the assay on PC-3, with SNB-19 and with SR was > 100 µM (inactive) each time. Also, the GI50 in the assay with U-251 and in the assay with UACC-257 was > 100 µM (inactive) throughout.
